Source: ChEMBL document CHEMBL6153157, “Novel 3-Aminothieno[2,3-b]pyridine-2-carboxamides with Activity against Mycobacterium tuberculosis” (ACS Med Chem Lett, 2025)

Key:
[1] = test system: Mycobacterium tuberculosis; assay: Antibacterial activity against wild type Mycobacterium tuberculosis H37Rv-LP DREAM8 strain expressing codon-optimized DsRed assessed growth inhibition incubated for 5 days by fluorescence spectrophotometric assay; format: functional; conditions: H37Rv-LP DREAM8, 120 h, time 5 day
[2] = Cytotoxicity against human HepG2 cells assessed as cell growth inhibition incubated for 3 days by CellTiter-Glo reagent-based luminescence assay; format: toxicity
[3] = Selectivity index, ratio of IC50 for cytotoxicity against human HepG2 cells to IC90 for antibacterial activity against wild type Mycobacterium tuberculosis H37Rv-LP DREAM8 strain expressing codon-optimized DsRed; format: toxicity, cell-based

| SMILES | IC90 [1] [µM] | IC50 at 3 days [2] [µM] | selectivity ratio [3] |
| --- | --- | --- | --- |
| COc1ccc(-c2cc(C(F)(F)F)c3c(N)c(C(=O)N4CCCCC4)sc3n2)cc1 | > 100 | > 100 | – |
| COc1ccc(-c2cc(C(F)(F)F)c3c(N)c(C(=O)N4CCCC4(C)C)sc3n2)cc1 | > 100 | 78 | < 1 |
| COc1ccc(-c2ccc3c(N)c(C(=O)Nc4cccc(C)c4C)sc3n2)cc1 | > 100 | > 100 | – |
| CCNC(=O)c1sc2nc(-c3ccc(Cl)cc3Cl)cc(C(F)(F)F)c2c1N | > 100 | 36 | – |
| CN(C)C(=O)c1sc2ncccc2c1N | > 100 | > 100 | – |
| CCC(NC(=O)c1sc2nc(-c3ccc(OC)cc3)cc(C(F)(F)F)c2c1N)c1ccccc1 (stereo not given) | 0.74 | > 100 | > 135 |
| Nc1c(C(=O)NCc2ccc(F)cc2)sc2nc(-c3ccccc3)ccc12 | > 100 | > 100 | – |
| Nc1c(C(=O)Nc2cccnc2)sc2nc(-c3ccccc3)cc(C(F)(F)F)c12 | > 100 | > 100 | – |
| COc1ccc(-c2cc(C(F)(F)F)c3c(N)c(C(=O)N4CC(OC)C4)sc3n2)cc1 | > 100 | 50 | < 1 |
| Cc1ccc(NC(=O)c2sc3nc(C)cc(C(F)(F)F)c3c2N)cc1 | > 100 | 31 | – |
| Nc1c(C(=O)N2CC(F)(F)C2)sc2nc(-c3ccccc3)ccc12 | > 100 | 38 | – |
| COc1ccc(-c2cc(C(F)(F)F)c3c(N)c(C(=O)NC45CC6CC(CC(C6)C4)C5)sc3n2)cc1 | 1.1 | > 100 | < 91 |
| Cc1cccc(NC(=O)c2sc3nc(-c4cccs4)cc(C(F)(F)F)c3c2N)c1C | > 100 | > 100 | – |
| COc1ccc(-c2cc(C(F)(F)F)c3c(N)c(C(=O)NC4CCC(c5ccc(C(C)(C)C)cc5)CC4)sc3n2)cc1 (stereo not given) | > 10 | > 10 | – |
| COc1ccc(-c2cc(C(F)(F)F)c3c(N)c(C(=O)NC(C)c4ccccc4)sc3n2)cc1 (stereo not given) | 0.63 | 52 | 83 |
| Nc1c(C(=O)Nc2ccccc2F)sc2nc(-c3ccccc3)cc(C(F)(F)F)c12 | > 100 | > 100 | – |
| COc1ccc(-c2cc(C(F)(F)F)c3c(N)c(C(=O)N4CC5(CCOC5)C4)sc3n2)cc1 | > 50 | 33 | < 1 |
| COc1ccc(-c2cc(C(F)(F)F)c3c(N)c(C(=O)NC(C)C4CCCCC4)sc3n2)cc1 (stereo not given) | 1.1 | > 100 | > 91 |
| COc1ccc(-c2cc(C(F)(F)F)c3c(N)c(C(=O)NC4CC5(C4)CN(C(=O)OC(C)(C)C)C5)sc3n2)cc1 | > 100 | 12 | < 1 |
| Nc1c(C(=O)N2CCOCC2)sc2nc(Cl)ccc12 | > 100 | > 100 | – |
| COc1ccc(-c2cc(C(F)(F)F)c3c(N)c(C(=O)N4CC(F)(F)C4)sc3n2)cc1 | > 50 | > 50 | < 1 |
| COc1cccc(-c2cc(C(F)(F)F)c3c(N)c(C(=O)Nc4cccc(C)c4C)sc3n2)c1 | > 100 | 52 | – |
| COc1ccc(-c2cc(C(F)(F)F)c3c(N)c(C(=O)N4CCC4)sc3n2)cc1 | > 100 | 62 | < 1 |
| Cc1cccc(NC(=O)c2sc3nc(-c4ccccc4)cc(C(F)(F)F)c3c2N)c1C | > 100 | > 100 | – |

| SMILES | IC90 [1] [µM] | IC50 at 3 days [2] [µM] | selectivity ratio [3] |
| --- | --- | --- | --- |
| Cc1cccc(NC(=O)c2sc3nc(-c4ccco4)cc(C(F)(F)F)c3c2N)c1C | > 100 | > 100 | – |
| COc1ccc(-c2cc(C(F)(F)F)c3c(N)c(C(=O)NC4CC4)sc3n2)cc1 | > 100 | > 100 | – |
| Nc1c(C(=O)N2CCOCC2)sc2nc(-c3ccc(F)cc3)ccc12 | > 100 | 41 | – |
| COCCNC(=O)c1sc2nc(-c3ccc(OC)cc3)cc(C(F)(F)F)c2c1N | > 100 | > 100 | – |
| COc1ccc(-c2cc(C(F)(F)F)c3c(N)c(C(=O)NC4COC4)sc3n2)cc1 | > 100 | > 100 | – |
| COc1ccc(-c2cc(C(F)(F)F)c3c(N)c(C(=O)NCC45CC6CC(CC(C6)C4)C5)sc3n2)cc1 | 1.4 | > 100 | < 71 |
| COc1ccc(-c2cc(C(F)(F)F)c3c(N)c(C(=O)Nc4ccc(C)cc4C)sc3n2)cc1 | > 100 | > 100 | – |
| COc1ccc(-c2cc(C(F)(F)F)c3c(N)c(C(=O)Nc4cc(C)cc(C)c4)sc3n2)cc1 | > 100 | 47 | < 1 |
| Nc1c(C(=O)N2CCOCC2)sc2nc(-c3cccnc3)ccc12 | > 100 | > 100 | – |
| COc1ccc(-c2ccc3c(N)c(C(=O)N4CCOCC4)sc3n2)cc1OC | > 100 | > 100 | – |
| COc1ccc(-c2cc(C(F)(F)F)c3c(N)c(C(=O)N4CCCC4)sc3n2)cc1 | > 50 | > 50 | – |
| COc1ccc(-c2cc(C(F)(F)F)c3c(N)c(C(=O)N4C5CCCC4COC5)sc3n2)cc1 | > 100 | 42 | < 1 |
| Nc1c(C(=O)N2CCCC2)sc2nc(-c3ccc4c(c3)OCO4)cc(C(F)(F)F)c12 | > 100 | > 100 | – |
| COc1ccc(-c2cc(C(F)(F)F)c3c(N)c(C(=O)NCc4cccc(C)c4C)sc3n2)cc1 | 1.3 | 50 | 38 |
| COc1ccc(-c2cc(C(F)(F)F)c3c(N)c(C(=O)Nc4cccc(C)c4OC)sc3n2)cc1 | > 100 | > 100 | – |
| COc1ccc(-c2cc(C)c3c(N)c(C(=O)Nc4cccc(C)c4C)sc3n2)cc1 | > 100 | 27 | – |
| Cc1cccc(NC(=O)c2sc3nc(-c4ccc5c(c4)OCO5)cc(C(F)(F)F)c3c2N)c1C | 0.94 | 46 | – |
| CN(C)C(=O)c1sc2nc(-c3ccccc3)ccc2c1N | > 100 | > 100 | – |
| Nc1c(C(=O)N2CCOCC2)sc2nc(-c3ccoc3)ccc12 | > 100 | 50 | – |
| Nc1c(C(=O)NC23CC4CC(CC(C4)C2)C3)sc2nc(-c3ccc4c(c3)OCO4)cc(C(F)(F)F)c12 | 0.68 | 81 | – |
| Nc1c(C(=O)NCc2ccccc2)sc2ncccc12 | > 100 | > 100 | – |
| COc1ccc(-c2cc(C(F)(F)F)c3c(N)c(C(=O)NCCSC)sc3n2)cc1 | 41 | > 100 | – |
| Cc1cccc(CNC(=O)c2sc3nc(-c4ccc5c(c4)OCO5)cc(C(F)(F)F)c3c2N)c1C | > 100 | 44 | – |
| Cc1cccc(NC(=O)c2sc3nc(-c4cccs4)cc(C(F)(F)F)c3c2N)c1 | > 100 | 32 | – |

| SMILES | IC90 [1] [µM] | IC50 at 3 days [2] [µM] | selectivity ratio [3] |
| --- | --- | --- | --- |
| COc1ccc(-c2cc(C(F)(F)F)c3c(N)c(C(=O)Nc4cccc(C)c4C)sc3n2)cn1 | 1.4 | 31 | – |
| Nc1c(C(=O)Nc2ccccc2C(F)(F)F)sc2nc(-c3ccccc3)cc(C(F)(F)F)c12 | > 100 | 97 | – |
| COc1ccc(-c2cc(C(F)(F)F)c3c(N)c(C(=O)Nc4ccc(C)c(C)c4)sc3n2)cc1 | > 100 | 79 | < 1 |
| COc1ccc(-c2cc(C(F)(F)F)c3c(N)c(C(=O)Nc4ccccc4)sc3n2)cc1 | > 100 | > 100 | – |
| COc1ccc(-c2cc(C(F)(F)F)c3c(N)c(C(=O)Nc4cccc(C)c4C)sc3n2)cc1 | 1.1 | 44 | – |
| COc1ccc(-c2cc(C(F)(F)F)c3c(N)c(C(=O)NCc4ccccc4C)sc3n2)cc1 | 2.4 | 23 | 10 |
| COc1ccc(-c2ccc3c(N)c(C(=O)N4CCOCC4)sc3n2)cc1 | > 100 | 63 | – |
| COC1CN(C(=O)c2sc3nc(-c4ccccc4)ccc3c2N)C1 | > 100 | 38 | – |
| COc1ccc(-c2cc(C(F)(F)F)c3cc(C(=O)NC(C)c4ccccc4)sc3n2)cc1 (stereo not given) | 2.5 | > 100 | – |
| COc1ccc(-c2cc(C(F)(F)F)c3c(N)c(C(=O)N4CC(C)OC(C)C4)sc3n2)cc1 (stereo not given) | > 50 | 44 | < 1 |
| COc1ccc(-c2cc(C(F)(F)F)c3c(N)c(C(=O)Nc4cccc(C)c4C)sc3n2)cc1OC | > 100 | 42 | – |
| Cc1ccc(NC(=O)c2sc3nc(-c4ccccc4)cc(C(F)(F)F)c3c2N)cc1 | > 100 | 24 | – |
| COc1ccc(-c2cc(C(F)(F)F)c3c(N)c(C(=O)NCc4ccccc4)sc3n2)cc1 | > 100 | 88 | < 1 |
| CCN(CC)C(=O)c1sc2ncccc2c1N | > 100 | > 100 | – |
| Nc1c(C(=O)N2CCOCC2)sc2nc(-c3ccccc3)ccc12 | > 100 | 56 | – |
| COC1CN(C(=O)c2sc3ncccc3c2N)C1 | > 100 | > 100 | – |
| COc1ccc(-c2cc(C(F)(F)F)c3c(N)c(C(=O)Nc4c(C)cccc4C)sc3n2)cc1 | > 100 | > 100 | – |
| Cc1ccc(-c2cc(C(F)(F)F)c3c(N)c(C(=O)Nc4cccc(C)c4C)sc3n2)cc1 | > 100 | 60 | – |
| Nc1c(C(=O)NCc2ccccc2)sc2nc(-c3ccccc3)ccc12 | > 100 | > 100 | – |
| Nc1c(C(=O)N2CC(F)(F)C2)sc2ncccc12 | > 100 | > 100 | – |
| COc1ccc(-c2cc(C(F)(F)F)c3c(N)c(C(=O)Nc4cccc(C)c4F)sc3n2)cc1 | > 100 | 42 | – |
| Nc1c(C(=O)N2CCOCC2)sc2ncccc12 | > 100 | > 100 | – |
| Nc1c(C(=O)NCc2ccc(F)cc2)sc2ncccc12 | > 100 | > 100 | – |
